Data from US20100209407A1, “MC-1R, MC-2R, AND/OR MU OPIOID RECEPTORS MODULATION” (BASF BEAUTY CARE SOLUTIONS FRANCE S.A.S., priority 2007, published 2010).

What was measured:
Assay type in all cases: cell-based, human
POMC [1] = assay: POMC mRNA expression by quantitative RT-PCR in melanocytes put in contact with actives; conditions: mRNA relative to actin, multiple of untreated control, 24 hours, same conditions as Example 3
Protocol: The active components are tested for keratinocytes after dissolution in the culturing environment: usually between 0.1% and 2% (v/v) for plants and biotechnological hydrolysates and in particular from 0.5% to 1% and usually between 0.001% and 0.01% for characterized molecules. The present results are obtained with 1% in the culturing environment for plant extracts and biotechnological hydrolysates, and with 0.01% for characterized molecules.
After the contact time of the actives with the cells, for example 24 hours, the environments are eliminated and the cells conserved, for example by freeze-drying at −80° C. after a rinsing with 7.4 pH phosphate solution. The total RNA is extracted, for example, using a 96-well extraction kit on silica columns and divided onto a 96-well spectrophotometer at 260 nm (purity indicator: dosage of proteins at 280 nm). The RNA is diluted, for example at 5 ng/μl. […]
(§1) The parameters of amplification have usually been the following: The technique of RT-PCR in real time is conducted with the “Quanti Ted SYBR Green RT-PCR” kit (Qiagen, France) on wells containing mRNA, in an OPTICON thermocycler, which carries out cycles of amplification. […] At the end of each cycle, fluorescence, which is proportional to the number of fragments amplified, is read. […]

μ opioid R [2] = assay: μ opioid R mRNA expression by quantitative RT-PCR in melanocytes put in contact with actives; conditions: mRNA relative to actin, multiple of untreated control, 24 hours, same conditions as Example 3
MC-1R [3] = assay: MC-1R mRNA expression by quantitative RT-PCR in melanocytes put in contact with actives; conditions: mRNA relative to actin, multiple of untreated control, 24 hours, same conditions as Example 3
μ opioid receptor = assay: Detection of μ opioid receptor protein in keratinocytes after action of active components (electrophoresis, immunodetection, image analysis); conditions: semi-quantification via image analysis, multiple of control
Protocol: (§2) The cells were cultivated at 37° C. in an atmosphere of 5% CO2 in the K-SFM environment K-SFM (Invitrogen) containing BPF (25 mg), EGF (2.5 μg), and normocin.
(§3) The cells were washed once with PBS solution, and the proteins were extracted at 30 min at 4° C. in lysis solution (Tris 50 mM, NaCl 250 mM, pH 7.5, 1% triton), in the presence of protease inhibitors. The lysates were centrifuged for 15 minutes at 13,000 g. The floaters are diluted with Laemmli solution in the presence of beta mercaptoethanol before electrophoresis.
(§4) For immunodetection, the proteins are separated via electrophoresis in 4-12% SDS-polyacrylamide gel. The proteins were transferred onto a nitrocellulose membrane (Biorad). The membranes are then saturated for one hour at ambient temperature in TBS solution with 3% BSA. The proteins are finally immunodetected after incubation of the primary antibody at 4° C. all night, followed by the secondary antibody coupled with Alexa 488 (invitrogen), 1 hour at ambient temperature.
(§5) The antibodies were used in the following dilution: 5 μg/mL anti-MC-1R, 5 μg/mL anti-MC-2R, and 1/1000 anti-μ opioid R.
(§6) Semi-quantification was carried out via image analysis. The actives are the following and are the subject of table IV.

MC-2R [4] = assay: MC-2R mRNA expression by quantitative RT-PCR in keratinocytes put in contact with actives; conditions: mRNA relative to actin, multiple of untreated control, 24 hours, 1% plant extracts and biotechnological hydrolysates, 0.01% characterized molecules
Description: (§7) In particular, the extracts are obtained by macerating plants (preferably roots, rhizomes, stems, bark, flowers, fruits, seeds, germs, or leaves) at 1-10% (p/p), usually 1-5% in a solvent or a mixture of solvents, usually a mixture of water and alcohol, glycol, or polyol (such as ethanol, glycerol, butylene glycol and other glycols, xylitol, etc.) 100/0 to 0/100, and preferably in water. The extracts obtained are then filtered or distilled in order to recover the soluble portion, which is then filtered, preferably at 0.45 μm. Biotechnological hydrolysates are obtained via the fermentation of plant extracts in the presence of microorganisms usually from the family of lactic bacteria, in particular bactobacillus plantarum, or paracasei, and bifidobacterium, in particular longum or Saccharomyces. These hydrolysates are then filtered, preferably to 0.45 μm, in order to obtain the active components. […]
as §1

POMC [5] = assay: POMC mRNA expression by quantitative RT-PCR in keratinocytes put in contact with actives; conditions: mRNA relative to actin, multiple of untreated control, 24 hours, 1% plant extracts and biotechnological hydrolysates, 0.01% characterized molecules
Description: as §7, §1

MC-2R [6] = assay: Detection of MC-2R protein in keratinocytes after action of active components (electrophoresis, immunodetection, image analysis); conditions: semi-quantification via image analysis, multiple of control
Protocol: as §2, §3, §4, §5, §6

μ opioid R [7] = assay: μ opioid R mRNA expression by quantitative RT-PCR in keratinocytes put in contact with actives; conditions: mRNA relative to actin, multiple of untreated control, 24 hours, 1% plant extracts and biotechnological hydrolysates, 0.01% characterized molecules
Description: as §7, §1

MC-1R [8] = assay: MC-1R mRNA expression by quantitative RT-PCR in keratinocytes put in contact with actives; conditions: mRNA relative to actin, multiple of untreated control, 24 hours, 1% plant extracts and biotechnological hydrolysates, 0.01% characterized molecules
Description: as §7, §1

Compound | POMC Control X: (POMC [1]) | μ opioid R Control X: (μ opioid R [2]) | MC-1R Control X: (MC-1R [3]) | μ opioid R Control X: (μ opioid receptor) | MC-2R Control X: (MC-2R [4]) | POMC Control X: (POMC [5]) | MC-2R Control X: (MC-2R [6]) | μ opioid R Control X: (μ opioid R [7]) | MC-1R Control X: (MC-1R [8])
Cc1nc(C(=O)O)cc2c1[nH]c1ccccc12 [1 methyl beta carbolin-3-carboxylic acid] | 3.3 Control X | 1.0 Control X | 1.0 Control X | – | – | – | – | – | –
CC1=CC(=O)C2=C(C)CC(OC(=O)Cc3ccccc3)C3C(C)C(=O)OC3C12 (stereo not drawn) [Phenyl-acetic acid 3,6,9-trimethyl-2,7-dioxo-2,3,3a,4,5,7,9a,9b-octahydro-azuleno[4,5-b]furan-4-yl] | – | – | – | 1.66 Control X | 20.0 Control X | 1 Control X | 1.96 Control X | 1.0 Control X | 20.0 Control X
C/C=C(/C)C(=O)OC1CC2(C)CCC(C(C)C)C2(O)CCC1(C)O (stereo not drawn) [(Z)-decahydro-6,8a-dihydroxy-1-isopropyl-3a,6-dimethylazulen-5-yl 2-methylbut-2-enoate] | – | – | – | 1.37 Control X | 18.5 Control X | 1 Control X | 1.99 Control X | 1.0 Control X | 1.0 Control X
